Converted amounts (≈) assume the structure as drawn. Structures can show the parent of a compound that is named as a salt. Where two headings read alike, the source gives them in different places.
What was measured:
Assay type in all cases: cell-based
[1] = test system: Staphylococcus aureus NRS384 (MRSA); assay: Broth microdilution MIC, S. aureus NRS384 (MRSA); design: MIC NRS 384 (MRSA): unit not given here; conditions: broth microdilution, 37° C., 20 hours; for MIC: Staphylococcus aureus, read-out: MIC NRS 384 (MRSA)
Summary of the method: (§1)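 Two-fold dilutions from 64 to 0.0625 μg/ml final, 1% DMSO, were inoculated at ~5.0×10^5 cfu/ml in the strain's test medium and kept 20 h at 37 °C in ambient atmosphere. Colonies were grown on MHA, with S. pneumoniae on blood agar under 5% CO2.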

[2] = test system: Staphylococcus aureus ATCC 29213 (MSSA); assay: Broth microdilution MIC, S. aureus ATCC 29213 (MSSA); conditions: read-out: MIC S. aureus ATCC 29213 (MSSA)
Summary of the method: as §1

[3] = test system: Enterococcus faecalis ATCC 29212; assay: Broth microdilution MIC, E. faecalis ATCC 29212; conditions: read-out: MIC E. faecalis ATCC 29212
Summary of the method: as §1

[4] = test system: Enterococcus faecium ATCC 700221 (VRE); assay: Broth microdilution MIC, E. faecium ATCC 700221 (VRE); design: MIC E. faecium ATCC 700221 (VRE): unit: ug/mL; conditions: broth microdilution, 37° C., 20 hours; for MIC: Enterococcus faecium, read-out: MIC E. faecium ATCC 700221 (VRE)
Summary of the method: as §1

[5] = test system: Escherichia coli ATCC 25922; assay: Broth microdilution MIC, E. coli ATCC 25922 (MHIIB w & w/o 4 mM EDTA); conditions: for MIC: Escherichia coli, read-out: MIC E. coli ATCC 25922; for MIC E. coli ATCC 25922 + 4 mM EDTA: with 4 mM EDTA
Summary of the method: as §1

[6] = test system: Streptococcus pneumoniae ATCC 49619; assay: Broth microdilution MIC, S. pneumoniae ATCC 49619; conditions: read-out: MIC S. pneumoniae ATCC 49619
Summary of the method: as §1

[7] = test system: Bacillus subtilis ATCC 6633; assay: Broth microdilution MIC, B. subtilis ATCC 6633; conditions: read-out: MIC B. subtilis ATCC 6633
Summary of the method: as §1

[8] = broth microdilution, 37° C., 20 hours
[9] = ATCC29212, broth microdilution, 37° C., 20 hours
[10] = ATCC25922, without EDTA, broth microdilution, 37° C., 20 hours
[11] = ATCC49619, broth microdilution, 37° C., 20 hours
[12] = ATCC6633, broth microdilution, 37° C., 20 hours

| Compound | MIC [1] [µg/mL] | MIC [2, 8] [µg/mL] | MIC [3, 9] [µg/mL] | MIC [4] [µg/mL] | MIC [5, 10] [µg/mL] | MIC E. coli ATCC 25922 + 4 mM EDTA [5, 8] [µg/mL] | MIC [6, 11] [µg/mL] | MIC [7, 12] [µg/mL] | MIC ([1]; S. aureus NRS 384) [µg/mL] | MIC NRS 384 (MRSA) [1] | MIC ([2]; 20 h) [µg/mL] | MIC ([3]; ATCC29212, 20 h) [µg/mL] | MIC E. faecium ATCC 700221 (VRE) [4] | MIC ([5]; ATCC25922, 20 h) [µg/mL] | MIC ([6]; ATCC49619, 20 h) [µg/mL] | MIC ([7]; ATCC6633, 20 h) [µg/mL] |
| --- | --- | --- | --- | --- | --- | --- | --- | --- | --- | --- | --- | --- | --- | --- | --- | --- |
| CN(CCn1ncc2nc(NCc3ccc(Cl)c(Cl)c3)[nH]c(=O)c21)C(=O)c1cc(Cl)nnc1Cl [Compound 85, 3,6-dichloro-N-(2-(5-((3,4-dichlorobenzyl)amino)-7-oxo-6,7-dihydro-1H-pyrazolo[4,3-d]pyrimidin-1-yl)ethyl)-N-methylpyridazine-4-carboxamide] | 8 (≈ 14.8 µM) | 8 (≈ 14.8 µM) | 8 (≈ 14.8 µM) | 4 (≈ 7.38 µM) | > 64 | 16 | 8 (≈ 14.8 µM) | 4 (≈ 7.38 µM) |  |  |  |  |  |  |  |  |
| O=c1[nH]c(NCc2ccc(Cl)c(Cl)c2)nc2cnn(C3CCN(c4cccnc4)CC3)c12 [Compound 163, 5-((3,4-dichlorobenzyl)amino)-1-(1-(pyridin-3-yl)piperidin-4-yl)-1H-pyrazolo[4,3-d]pyrimidin-7(6H)-one dihydrochloride] |  |  |  |  |  | >64 |  |  |  | 2/2 | 2 | > 64 | 2/2 | > 64 | 8 | 0.5 |
| O=c1[nH]c(NCc2ccc(Cl)c(Cl)c2)nc2cnn(CC(O)CN3CCOCC3)c12 (stereo not shown) [Compound 289, 5-[(3,4-dichlorophenyl)methylamino]-1-(2-hydroxy-3-morpholino-propyl)-6H-pyrazolo[4,3-d]pyrimidin-7-one] | 32 (≈ 70.6 µM) | 32 (≈ 70.6 µM) | 16 (≈ 35.3 µM) | 8 (≈ 17.6 µM) | > 64 | >64 | 8 (≈ 17.6 µM) | 8 (≈ 17.6 µM) |  |  |  |  |  |  |  |  |
| Cl.O=C(c1ccccn1)N1CCC(n2ncc3nc(NCc4ccc(Cl)c(Cl)c4)[nH]c(=O)c32)C1 (stereo not shown) [Compound 257, 5-((3,4-Dichlorobenzyl)amino)-1-(1-picolinoylpyrrolidin-3-yl)-1H-pyrazolo[4,3-d]pyrimidin-7(6H)-one] | 4 | 4 | 8 | 4 | > 64 | >64 | 4 | 2 |  |  |  |  |  |  |  |  |
| CNC(=O)C(CCCn1ncc2nc(NCc3ccc(Cl)c(Cl)c3)[nH]c(=O)c21)c1ccccc1 (stereo not shown) [Compound 200, 5-(5-((3,4-dichlorobenzyl)amino)-7-oxo-6,7-dihydro-1H-pyrazolo[4,3-d]pyrimidin-1-yl)-N-methyl-2-phenylpentanamide] | 8 (≈ 16 µM) | 8 (≈ 16 µM) | 16 (≈ 32 µM) | 8 (≈ 16 µM) | > 64 | >64 | 16 (≈ 32 µM) | 2 (≈ 4 µM) |  |  |  |  |  |  |  |  |
| O=C(O)COCCn1cc2nc(NCc3ccc(Cl)c(Cl)c3)[nH]c(=O)c2n1 [Compound 141, 2-(2-(5-((3,4-Dichlorobenzyl)amino)-7-oxo-6,7-dihydro-2H-pyrazolo[4,3-d]pyrimidin-2-yl)ethoxy)acetic acid] | > 64 | > 64 | > 64 | > 64 | > 64 | >64 | > 64 | > 64 |  |  |  |  |  |  |  |  |
| Cl.Cl.O=c1[nH]c(NCc2ccc(Cl)c(Cl)c2)nc2cnn(C3CCN(Cc4cccnc4)CC3)c12 [Compound 245, 5-((3,4-Dichlorobenzyl)amino)-1-(1-(pyridin-3-ylmethyl)piperidin-4-yl)-1H-pyrazolo[4,3-d]pyrimidin-7(6H)-one dihydrochloride] | 2 | 2 | 4 | 1 | > 64 | 32 | 2 | 1 |  |  |  |  |  |  |  |  |
| O=c1c2c(cnn2CCOCCO)nc(NCc2ccc(Cl)c(Cl)c2)n1COP(=O)(O)O [Compound 320, (5-((3,4-dichlorobenzyl)amino)-1-(2-(2-hydroxyethoxy)ethyl)-7-oxo-1H-pyrazolo[4,3-d]pyrimidin-6(7H)-yl)methyl dihydrogen phosphate] |  | > 64 | > 64 | > 64 | > 64 | >64 | > 64 | > 64 | > 64 |  |  |  |  |  |  |  |
| Cn1nc(C2CCCO2)c2nc(NCc3ccc(Cl)c(Cl)c3)[nH]c(=O)c21 (stereo not shown) [Compound 47, 5-((3,4-dichlorobenzyl)amino)-1-methyl-3-(tetrahydrofuran-2-yl)-1H-pyrazolo[4,3-d]pyrimidin-7(6H)-one] | 16 (≈ 40.6 µM) | 16 (≈ 40.6 µM) | > 64 | 16 (≈ 40.6 µM) | > 64 | >64 | 32 (≈ 81.2 µM) | 8 (≈ 20.3 µM) |  |  |  |  |  |  |  |  |
| CC(C)(C)OC(=O)N1CCN(CCOCCn2ncc3nc(NCc4ccc(Cl)c(Cl)c4)[nH]c(=O)c32)CC1 [Compound 166, tert-butyl 4-[2-[2-[5-[(3,4-dichlorophenyl)methylamino]-7-oxo-6H-pyrazolo[4,3-d]pyrimidin-1-yl]ethoxy]ethyl]piperazine-1-carboxylate] | > 64 | > 64 | > 64 | 8 (≈ 14.1 µM) | > 64 | >64 | 16 (≈ 28.2 µM) | 4 (≈ 7.06 µM) |  |  |  |  |  |  |  |  |
| O=c1[nH]c(NCc2ccc(Cl)c(Cl)c2)nc2cnn(CCOCCOCCOCCO)c12 [Compound 116, 5-((3,4-Dichlorobenzyl)amino)-1-(2-(2-(2-(2-hydroxyethoxy)ethoxy)ethoxy)ethyl)-1H-pyrazolo[4,3-d]pyrimidin-7(6H)-one] | 32 (≈ 65.8 µM) | 64 (≈ 132 µM) | 16 (≈ 32.9 µM) | 8 (≈ 16.4 µM) | > 64 | >64 | 8 (≈ 16.4 µM) | 8 (≈ 16.4 µM) |  |  |  |  |  |  |  |  |

Further lines, with some results ahead:

| MIC [1] [µg/mL] | MIC [2, 8] [µg/mL] | MIC [3, 9] [µg/mL] | MIC [4] [µg/mL] | MIC [5, 10] [µg/mL] | MIC E. coli ATCC 25922 + 4 mM EDTA [5, 8] [µg/mL] | MIC [6, 11] [µg/mL] | MIC [7, 12] [µg/mL] | MIC ([1]; S. aureus NRS 384) [µg/mL] | Compound | MIC NRS 384 (MRSA) [1] | MIC ([2]; 20 h) [µg/mL] | MIC ([3]; ATCC29212, 20 h) [µg/mL] | MIC E. faecium ATCC 700221 (VRE) [4] | MIC ([5]; ATCC25922, 20 h) [µg/mL] | MIC ([6]; ATCC49619, 20 h) [µg/mL] | MIC ([7]; ATCC6633, 20 h) [µg/mL] |
| --- | --- | --- | --- | --- | --- | --- | --- | --- | --- | --- | --- | --- | --- | --- | --- | --- |
| 2 (≈ 5.05 µM) | 4 (≈ 10.1 µM) | 4 (≈ 10.1 µM) | 2 (≈ 5.05 µM) | > 64 | >64 | 4 (≈ 10.1 µM) | 1 (≈ 2.52 µM) |  | COC(=O)CCn1ncc2nc(NCc3ccc(Cl)c(Cl)c3)[nH]c(=O)c21 [Compound 231, Methyl 3-(5-((3,4-dichlorobenzyl)amino)-7-oxo-6,7-dihydro-1H-pyrazolo[4,3-d]pyrimidin-1-yl)propanoate] |  |  |  |  |  |  |  |
| > 64 | > 64 | > 64 | > 64 | > 64 | >64 | > 64 | > 64 |  | Cn1ncc2nc(Nc3ccc(Cl)c(Cl)c3)[nH]c(=O)c21 [Compound 9, 5-((3,4-Dichlorophenyl)amino)-1-methyl-1H-pyrazolo[4,3-d]pyrimidin-7(6H)-one] |  |  |  |  |  |  |  |
| 32 (≈ 75.2 µM) | 32 (≈ 75.2 µM) | 16 (≈ 37.6 µM) | 16 (≈ 37.6 µM) | > 64 | >64 | 4 (≈ 9.41 µM) | 8 (≈ 18.8 µM) |  | O=C(CCCCn1ncc2nc(NCc3ccc(Cl)c(Cl)c3)[nH]c(=O)c21)NO [Compound 217, 5-[5-[(3,4-dichlorophenyl)methylamino]-7-oxo-6H-pyrazolo[4,3-d]pyrimidin-1-yl]pentanehydroxamic acid] |  |  |  |  |  |  |  |
| 64 | > 64 | > 64 | 4 | > 64 | >64 | 4 | 2 |  | Cl.O=c1[nH]c(NCc2ccc(Cl)c(Cl)c2)nc2cnn(Cc3ccccn3)c12 [Compound 109, 5-((3,4-Dichlorobenzyl)amino)-1-(pyridin-2-ylmethyl)-1H-pyrazolo[4,3-d]pyrimidin-7(6H)-one hydrochloride] |  |  |  |  |  |  |  |
| 4 (≈ 10.9 µM) | 4 (≈ 10.9 µM) | 8 (≈ 21.7 µM) | 4 (≈ 10.9 µM) | > 64 | >64 | 4 (≈ 10.9 µM) | 2 (≈ 5.43 µM) |  | C[C@H](O)Cn1ncc2nc(NCc3ccc(Cl)c(Cl)c3)[nH]c(=O)c21 [Compound 240, (S)-5-((3,4-dichlorobenzyl)amino)-1-(2-hydroxypropyl)-1H-pyrazolo[4,3-d]pyrimidin-7(6H)-one] |  |  |  |  |  |  |  |
| 16 | 16 | 64 | > 64 | > 64 | 32 | 16 | 8 |  | Cl.N=C(N)NCCOCCn1ncc2nc(NCc3ccc(Cl)c(Cl)c3)[nH]c(=O)c21 [Compound 293, 1-(2-(2-(5-((3,4-Dichlorobenzyl)amino)-7-oxo-6,7-dihydro-1H-pyrazolo[4,3-d]pyrimidin-1-yl)ethoxy)ethyl)guanidine hydrochloride] |  |  |  |  |  |  |  |
